Test results from patent US12234232B2, “Aromatic heterocyclic compound with kinase inhibitory activity” (SHANGHAI ENNOVABIO PHARMACEUTICALS CO., LTD., priority 2018, dated 2025).

Columns and labels:
JAK2 [1] = target: T1, JAK2 (Homo sapiens, UniProt O60674); test: In vitro JAK2 kinase activity assay (HTRF kinEASE TK); assay type: biochemical; set-up: purchased Carna Biosciences; conditions: 2.7 μM ATP, 25 minutes, room temperature; read-out: IC50 JAK2 (enzyme activity assay)
Procedure: (§1) Recombinant human JAK1 protein was purchased from Thermo Fisher. JAK2 and JAK3 proteins were purchased from Carna Biosciences. HTRF kinEASE TK kit was purchased from Cisbio Bioassays. BioTek microplate reader Synergy Neo 2 was used to read the plate.
(§2) The test compounds were of 4-fold serial dilution, and the final concentration ranged from 10 μM to 0.04 nM in duplicates for each concentration. The concentration of DMSO in the reaction system was 1%.
(§3) The reaction included 0.001 ng/μl JAK 2 protein kinase, 1 μM TK Substrate-biotin peptide substrate, 2.7 μM ATP, 1× enzymatic buffer, 5 mM MgCl2, and 1 mM DTT. The detection plate was White Proxiplate 384-Plus plate (PerkinElmer), and the mixture (10 μl) was reacted at room temperature for 25 minutes.
(§4) Reaction detection: 10 μl of detection reagent was added to the reaction plate containing final concentration of 0.125 μM of SA-XL665 and 5 μl 1×TK-Antibody. The mixture was incubated overnight at room temperature. The plate was read using Synergy Neo 2.
(§5) Data analysis: 665/620 Ratio was converted into inhibition rate (%) through the following formula: inhibition rate (%)=(Ratiomax−Ratiotest)/(Ratiomax−Ratiomin)×100%. Ratiomax is a positive control without detection compound, Ratiomin is a negative control without detection compound and kinase, Ratiotest is the detection value of each concentration of different compounds. 4 parameter curve fitting was performed to measure the IC50 (nM) values. The details are shown in, Table 1.

JAK1 [2] = target: T2, JAK1 (Homo sapiens, UniProt P23458); test: In vitro JAK1 kinase activity assay (HTRF kinEASE TK); assay type: biochemical; set-up: purchased Thermo Fisher; conditions: 1.1 μM ATP, 60 minutes, room temperature; read-out: IC50 JAK1 (enzyme activity assay)
Procedure: as §1, §2
as §3, with “0.5” for “0.001”, “1” for “2”, “1.1” for “2.7”, “MgCl2,” for “MgCl2, and”, “MnCl2, 1 mM DTT, and 2.5 nM SEB.” for “DTT.”, “60” for “25”
as §4, §5

JAK1 [3] = target: T2, JAK1; test: Cellular JAK1 activity assay: IL-6-stimulated STAT3 phosphorylation in TF-1 cells; assay type: cell-based; set-up: endogenous in cells; host or cells: TF-1 cells (ATCC); conditions: IL-6 (30 ng/mL), pSTAT3, read-out: IC50 Cell JAK1
Procedure: (§6) In TF-1 cells, IL-6 stimulation leads to phosphorylation of STAT3 through JAK1, while EPO stimulants phosphorylation of STAT5 via JAK2.
(§7) TF-1 cells were obtained from American Type Culture Collection (ATCC). TF-1 cells were starved overnight (cell density was 100,000 cells/well at plating) in OptiMEM medium without phenol red containing 0.5% fetal bovine serum (FBS), 0.1 mM non-essential amino acids (NEAA), 1 mM sodium pyruvate at 37° C. The compound was serially diluted in DMSO, added to TF-1 cells and incubated at 37° C. for 20 minutes. The final concentration of DMSO was 0.2%. Then, human recombinant cytokine IL-6 (30 ng/mL) or EPO (10 U/mL) was added to the wells containing TF-1 cells. After the cell plate was incubated for 30 minutes, cells were lysed, and the phosphorylation of STAT3 (IL-6) or STAT5 (EPO) in the cell lysate (pSTAT3/total STAT3 Elisa Kit: CST #7300C/CST #7305C; pSTAT5 and total STAT5 Elisa Kit: Abcam #ab205715) was measured. The IC50 value was determined as the concentration of the compound required to inhibit STAT phosphorylation by 50% relative to the measured DMSO control.

JAK2 [4] = target: T1, JAK2; test: Cellular JAK2 activity assay: EPO-stimulated STAT5 phosphorylation in TF-1 cells; assay type: cell-based; set-up: endogenous in cells; host or cells: TF-1 cells (ATCC); conditions: EPO (10 U/mL), pSTAT5, read-out: IC50 Cell JAK2
Procedure: as §6, §7

JAK3 protein = target: T3, JAK3 protein (Homo sapiens, UniProt P52333); test: In vitro JAK3 kinase activity assay (HTRF kinEASE TK); assay type: biochemical; conditions: 0.75 μM ATP, 25 minutes, room temperature; read-out: IC50 JAK3 (enzyme activity assay)
T3 construct: purchased Carna Biosciences
T3 sequence (P52333 1-1124): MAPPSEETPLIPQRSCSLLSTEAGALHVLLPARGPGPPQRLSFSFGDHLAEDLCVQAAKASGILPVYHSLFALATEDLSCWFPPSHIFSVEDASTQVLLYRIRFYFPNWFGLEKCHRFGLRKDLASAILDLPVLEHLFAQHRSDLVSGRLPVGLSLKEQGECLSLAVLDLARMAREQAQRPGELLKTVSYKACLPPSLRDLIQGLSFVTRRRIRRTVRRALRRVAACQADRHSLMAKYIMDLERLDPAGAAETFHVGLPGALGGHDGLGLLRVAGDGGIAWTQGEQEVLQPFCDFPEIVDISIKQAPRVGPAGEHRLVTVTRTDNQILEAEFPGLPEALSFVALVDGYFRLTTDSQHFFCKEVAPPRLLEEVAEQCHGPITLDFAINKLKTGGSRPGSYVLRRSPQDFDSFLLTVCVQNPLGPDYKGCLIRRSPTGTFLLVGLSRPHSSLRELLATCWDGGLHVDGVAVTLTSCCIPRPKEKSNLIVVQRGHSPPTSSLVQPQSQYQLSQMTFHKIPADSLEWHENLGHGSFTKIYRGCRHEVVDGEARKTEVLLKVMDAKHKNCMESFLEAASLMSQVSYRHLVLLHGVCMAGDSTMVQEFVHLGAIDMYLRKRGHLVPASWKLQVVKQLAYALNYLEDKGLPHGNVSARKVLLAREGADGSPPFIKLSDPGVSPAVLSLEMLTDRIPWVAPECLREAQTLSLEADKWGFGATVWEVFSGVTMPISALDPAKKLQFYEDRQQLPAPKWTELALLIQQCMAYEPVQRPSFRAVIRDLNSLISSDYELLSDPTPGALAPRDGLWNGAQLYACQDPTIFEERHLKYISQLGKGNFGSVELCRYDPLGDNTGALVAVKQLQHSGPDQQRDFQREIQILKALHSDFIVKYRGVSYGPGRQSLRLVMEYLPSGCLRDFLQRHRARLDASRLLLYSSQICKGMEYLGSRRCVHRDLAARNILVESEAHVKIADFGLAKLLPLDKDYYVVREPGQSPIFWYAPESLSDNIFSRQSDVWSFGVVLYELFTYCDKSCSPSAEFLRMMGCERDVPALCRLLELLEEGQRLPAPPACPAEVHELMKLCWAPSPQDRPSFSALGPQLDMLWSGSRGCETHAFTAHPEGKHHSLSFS
Procedure: as §1, §2
as §3, with “included […]” for “included 0.001 ng/μl”, “JAK 3” for “JAK 2”, “substrate, 0.75” for “substrate, 2.7”
as §4, §5

T2 sequence (P23458 whole entry): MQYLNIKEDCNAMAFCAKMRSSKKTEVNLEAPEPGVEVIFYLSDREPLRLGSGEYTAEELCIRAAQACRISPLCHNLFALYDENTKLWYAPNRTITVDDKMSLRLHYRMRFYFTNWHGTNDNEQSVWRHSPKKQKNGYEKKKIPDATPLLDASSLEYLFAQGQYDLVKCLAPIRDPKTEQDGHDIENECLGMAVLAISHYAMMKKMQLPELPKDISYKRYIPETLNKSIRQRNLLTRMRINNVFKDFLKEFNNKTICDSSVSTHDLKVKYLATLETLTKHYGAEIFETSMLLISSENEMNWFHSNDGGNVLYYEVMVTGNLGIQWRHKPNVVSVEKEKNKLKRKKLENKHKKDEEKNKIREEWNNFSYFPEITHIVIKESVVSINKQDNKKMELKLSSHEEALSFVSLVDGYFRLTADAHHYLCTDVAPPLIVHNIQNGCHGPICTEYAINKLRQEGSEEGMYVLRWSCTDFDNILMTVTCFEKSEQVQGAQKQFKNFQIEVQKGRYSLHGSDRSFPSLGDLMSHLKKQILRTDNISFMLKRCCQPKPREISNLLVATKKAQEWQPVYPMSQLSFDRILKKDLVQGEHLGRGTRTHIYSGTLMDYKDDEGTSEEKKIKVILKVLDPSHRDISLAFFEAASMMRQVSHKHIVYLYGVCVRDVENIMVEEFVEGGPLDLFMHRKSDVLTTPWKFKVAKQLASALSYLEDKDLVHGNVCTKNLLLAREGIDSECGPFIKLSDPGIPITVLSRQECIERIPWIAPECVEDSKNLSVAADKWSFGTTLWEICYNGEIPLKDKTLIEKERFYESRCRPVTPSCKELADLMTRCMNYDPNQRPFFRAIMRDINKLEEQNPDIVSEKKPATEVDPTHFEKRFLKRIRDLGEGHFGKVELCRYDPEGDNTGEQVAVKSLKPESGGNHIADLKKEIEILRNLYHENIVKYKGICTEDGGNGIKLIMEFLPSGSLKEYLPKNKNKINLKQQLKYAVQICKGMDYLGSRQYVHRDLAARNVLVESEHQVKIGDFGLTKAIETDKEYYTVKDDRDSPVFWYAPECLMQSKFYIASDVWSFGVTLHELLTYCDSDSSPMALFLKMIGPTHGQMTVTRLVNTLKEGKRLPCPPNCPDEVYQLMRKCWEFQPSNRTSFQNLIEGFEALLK
T1 sequence (O60674 whole entry): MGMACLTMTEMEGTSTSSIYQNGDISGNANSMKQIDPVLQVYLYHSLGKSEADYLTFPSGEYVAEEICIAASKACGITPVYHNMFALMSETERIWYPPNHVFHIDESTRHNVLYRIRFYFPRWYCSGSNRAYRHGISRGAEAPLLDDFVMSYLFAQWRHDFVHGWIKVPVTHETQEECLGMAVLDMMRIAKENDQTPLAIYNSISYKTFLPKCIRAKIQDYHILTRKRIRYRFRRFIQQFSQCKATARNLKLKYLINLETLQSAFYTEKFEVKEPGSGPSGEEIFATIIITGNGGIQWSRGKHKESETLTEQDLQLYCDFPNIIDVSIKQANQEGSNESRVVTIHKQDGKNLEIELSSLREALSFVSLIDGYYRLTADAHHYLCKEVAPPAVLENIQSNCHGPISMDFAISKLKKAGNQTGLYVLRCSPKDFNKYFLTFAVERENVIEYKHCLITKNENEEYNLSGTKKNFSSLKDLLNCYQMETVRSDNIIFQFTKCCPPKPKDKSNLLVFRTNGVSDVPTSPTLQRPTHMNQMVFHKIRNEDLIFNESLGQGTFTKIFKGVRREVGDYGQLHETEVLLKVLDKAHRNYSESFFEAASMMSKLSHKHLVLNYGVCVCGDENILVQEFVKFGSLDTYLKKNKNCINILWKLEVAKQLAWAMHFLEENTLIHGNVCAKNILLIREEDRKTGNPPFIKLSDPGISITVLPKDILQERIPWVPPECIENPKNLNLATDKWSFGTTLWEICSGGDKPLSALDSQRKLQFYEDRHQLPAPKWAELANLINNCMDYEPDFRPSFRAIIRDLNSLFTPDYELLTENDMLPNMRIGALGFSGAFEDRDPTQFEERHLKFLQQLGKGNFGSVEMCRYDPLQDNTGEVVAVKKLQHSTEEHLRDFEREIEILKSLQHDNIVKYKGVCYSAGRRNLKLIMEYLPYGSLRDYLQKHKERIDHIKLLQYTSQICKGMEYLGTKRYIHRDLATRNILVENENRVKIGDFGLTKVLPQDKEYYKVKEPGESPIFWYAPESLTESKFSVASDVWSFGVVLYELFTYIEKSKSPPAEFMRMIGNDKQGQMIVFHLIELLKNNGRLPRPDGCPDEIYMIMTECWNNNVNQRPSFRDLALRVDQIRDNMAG

SMILES	IC50 (JAK2 [1]) [µM]	IC50 (JAK1 [2]) [µM]	IC50 (JAK1 [3]) [µM]	IC50 (JAK2 [4]) [µM]	IC50 (JAK3 protein) [µM]
CCC(C(=O)Nc1nccc2c(-c3nc(Nc4cccc(S(C)(=O)=O)c4F)ncc3C)c[nH]c12)N1CC2CCC(C1)N2C (stereo not drawn) [Example 23, N-(3-(2-((2-Fluoro-3-(methylsulfonyl)phenyl)amino)-5-methylpyrimidin-4-yl)-1H-pyrrolo[2,3-c]pyridin-7-yl)-2-(8-methyl-3,8-diazabicyclo[3.2.1]octane-3-yl)butanamide]	0.1 to 10	0.005 to 0.05	0.1 to 1	10 to 20	0.5 to 10
CCC(C(=O)Nc1nccc2c(-c3nc(Nc4cn(C)nc4OC)ncc3C)c[nH]c12)N1CCN(C)CC1 (stereo not drawn) [Example 2, N-(3-(2-((3-Methoxy-1-methyl-1H-pyrazol-4-yl)amino)-5-methylpyrimidin-4-yl)-1H-pyrrolo[2,3-c]pyridin-7-yl)-2-(4-methylpiperazin-1-yl)butanamide]	< 0.1	0.005 to 0.05	< 0.1	< 10	< 0.5
CCC(C(=O)Nc1nccc2c(-c3nc(Nc4cn(C)nc4OC)ncc3C)c[nH]c12)N1CCC(O)C1 (stereo not drawn) [Example 8]	< 0.1	0.005 to 0.05	0.1 to 1	> 20	< 0.5
COc1nn(C)cc1Nc1nccc(-c2c[nH]c3c(NC(=O)[C@@H](C)N4CCN(C)CC4)nccc23)n1 [Example 1, (R)—N-(3-(2-((3-Methoxy-1-methyl-1H-pyrazol-4-yl)amino)pyrimidin-4-yl)-1H-pyrrolo[2,3-c]pyridin-7-yl)-2-(4-methylpiperazin-1-yl)propionamide]	0.1 to 10	> 0.05			0.5 to 10
CCC(C(=O)Nc1nccc2c(-c3nc(Nc4cccc(S(C)(=O)=O)c4F)ncc3C)c[nH]c12)N1CC2(CCN(C)CC2)C1 (stereo not drawn) [Example 24, N-(3-(2-((2-Fluoro-3-(methylsulfonyl)phenyl)amino)-5-methylpyrimidin-4-yl)-1H-pyrrolo[2,3-c]pyridin-7-yl)-2-(7-methyl-2,7-diazaspiro[3.5]nonane-2-yl)butanamide]	0.1 to 10	0.005 to 0.05	0.1 to 1	> 20	0.5 to 10
CCC(C(=O)Nc1ncnc2c(-c3nc(Nc4cccc(S(C)(=O)=O)c4F)ncc3C)c[nH]c12)N1CCN(C)CC1 (stereo not drawn) [Example 29, N-(7-(2-((2-Fluoro-3-(methylsulfonyl)phenyl)amino)-5-methylpyrimidin-4-yl)-5H-pyrrolo[3,2-d]pyrimidin-4-yl)-2-(4-methylpiperazin-1-yl)butanamide]	0.1 to 10	> 0.05			0.5 to 10
COc1nn(C)cc1Nc1ncc(C)c(-c2c[nH]c3c(NC(N)=O)nccc23)n1 [Example 12]	< 0.1	< 0.005	< 0.1	< 10	< 0.5
CCC(C(=O)Nc1nccc2c(-c3nc(Nc4cn(C)nc4OC)ncc3F)c[nH]c12)N1CCN(C)CC1 (stereo not drawn) [Example 17, N-(3-(5-Fluoro-2-((3-methoxy-1-methyl-1H-pyrazol-4-yl)amino)pyrimidin-4-yl)-1H-pyrrole[2,3-c]pyridin-7-yl)-2-(4-methylpiperazin-1-yl)butanamide]	0.1 to 10	< 0.005			< 0.5
CCC(C(=O)Nc1nccc2c(-c3nc(Nc4cn(C)nc4OC)ncc3C)c[nH]c12)N1CC(C)N(C)C(C)C1 (stereo not drawn) [Example 10]	0.1 to 10	0.005 to 0.05	> 1	> 20	0.5 to 10
CC[C@@H](C(=O)Nc1nccc2c(-c3nc(Nc4cccc(S(C)(=O)=O)c4F)ncc3C)c[nH]c12)N1CC2CCC(C1)N2C [Example 26, (S)—N-(3-(2-((2-Fluoro-3-(methylsulfonyl)phenyl)amino)-5-methylpyrimidin-4-yl)-1H-pyrrolo[2,3-c]pyridin-7-yl)-2-(8-methyl-3,8-diazabicyclo[3.2.1]octane-3-yl)butanamide]	0.1 to 10	> 0.05			0.5 to 10
CCC(C(=O)Nc1nccc2c(-c3nc(Nc4cccc(S(C)(=O)=O)c4F)ncc3C)c[nH]c12)N1CCN(C)CC1 (stereo in doubt) [Example 20, (S)—N-(3-(2-((2-Fluoro-3-(methylsulfonyl)phenyl)amino)-5-methylpyrimidin-4-yl)-1H-pyrrolo[2,3-c]pyridin-7-yl)-2-(4-methylpiperazin-1-yl)butanamide]	0.1 to 10	0.005 to 0.05			0.5 to 10
CCC(C(=O)Nc1nccc2c(-c3nc(Nc4cn(C)nc4OC)ncc3C)c[nH]c12)N1CCN(C2COC2)CC1 (stereo not drawn) [Example 18, N-(3-(2-((3-Methoxy-1-methyl-1H-pyrazol-4-yl)amino)-5-methylpyrimidin-4-yl)-1H-pyrrolo[2,3-c]pyridin-7-yl)-2-(4-(oxbutan-3-yl)piperazin-1-yl)butanamide]	0.1 to 10	< 0.005			< 0.5
COc1nn(C)cc1Nc1ncc(C)c(-c2c[nH]c3c(NC(=O)C(C)(C)N4CCN(C)CC4)nccc23)n1 [Example 11]	0.1 to 10	0.005 to 0.05			0.5 to 10
